One assay relates to NCI-H661. Description: relative viability (nuclei count vs DMSO), 5 days (fraction); higher = more cells survive. The conditions noted are these: first compound 0.8 µM. Put shortly: (§1)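 Nuclei were stained with Hoechst during a one-step fixation (final 0.05% Triton X-100, 1% formaldehyde, 1 ug/ml Hoechst) carried out 5 days after dosing, then counted on 4× images. The cells, lung cancer lines in 1536-well plates, had been dosed by pin tool the day after seeding with one drug alone or a fixed anchor-drug dose plus five library-drug doses (not always all listed) in √10 steps. Relative viability is the nuclei count in treated wells divided by that in vehicle wells, and each value is the median of duplicate plates.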
In turn, `CCCCCCCCCCCC1=C(O)C(=O)C=C(O)C1=O` [Embelin] + CC(=O)c1c(C)c2cnc(Nc3ccc(N4CCNCC4)cn3)nc2n(C2CCCC2)c1=O [Palbociclib] (partner 0.5 µM) showed a relative viability of 0.419.

Still in this assay, the particulars now being: first compound 2.53 µM.
With `CCCCCCCCCCCC1=C(O)C(=O)C=C(O)C1=O` [Embelin] + N=C(N)NC(=N)NCCc1ccccc1 [Phenformin] (partner 250 µM), the relative viability was determined as 0.276.
Turning to `CCCCCCCCCCCC1=C(O)C(=O)C=C(O)C1=O` [Embelin] + CCNC(=O)c1noc(-c2cc(C(C)C)c(O)cc2O)c1-c1ccc(CN2CCOCC2)cc1 [Luminespib] (partner 0.01 µM), the relative viability is 0.897.
Consider `CCCCCCCCCCCC1=C(O)C(=O)C=C(O)C1=O` [Embelin] + Cc1nc(Nc2ncc(C(=O)Nc3c(C)cccc3Cl)s2)cc(N2CCN(CCO)CC2)n1 [Dasatinib] (partner 0.075 µM), for which the relative viability worked out at 0.99.
On to `CCCCCCCCCCCC1=C(O)C(=O)C=C(O)C1=O` [Embelin] + CC(=O)c1c(C)c2cnc(Nc3ccc(N4CCNCC4)cn3)nc2n(C2CCCC2)c1=O [Palbociclib] (partner 0.5 µM), for which the relative viability stood at 0.385.

The assay is the same for the next values; noted with them: first compound 8 µM.
`CCCCCCCCCCCC1=C(O)C(=O)C=C(O)C1=O` [Embelin] + N=C(N)NC(=N)NCCc1ccccc1 [Phenformin] (partner 250 µM): the relative viability came out at 0.261.
For `CCCCCCCCCCCC1=C(O)C(=O)C=C(O)C1=O` [Embelin] + CCNC(=O)c1noc(-c2cc(C(C)C)c(O)cc2O)c1-c1ccc(CN2CCOCC2)cc1 [Luminespib] (partner 0.01 µM), the relative viability is 0.85.
`CCCCCCCCCCCC1=C(O)C(=O)C=C(O)C1=O` [Embelin] + Cc1nc(Nc2ncc(C(=O)Nc3c(C)cccc3Cl)s2)cc(N2CCN(CCO)CC2)n1 [Dasatinib] (partner 0.075 µM): the relative viability worked out at 0.703.
The compound `CCCCCCCCCCCC1=C(O)C(=O)C=C(O)C1=O` [Embelin] + CC(=O)c1c(C)c2cnc(Nc3ccc(N4CCNCC4)cn3)nc2n(C2CCCC2)c1=O [Palbociclib] (partner 0.5 µM) gave a relative viability of 0.364.

Another assay concerns NCI-H1915. Described as above. The settings on record: first compound 0.08 µM. The procedure, abridged:
as §1
With `CCCCCCCCCCCC1=C(O)C(=O)C=C(O)C1=O` [Embelin] + N=C(N)NC(=N)NCCc1ccccc1 [Phenformin] (partner 250 µM), the relative viability stood at 0.382.
Still for that read-out and setting: next, `CCCCCCCCCCCC1=C(O)C(=O)C=C(O)C1=O` [Embelin] + CCNC(=O)c1noc(-c2cc(C(C)C)c(O)cc2O)c1-c1ccc(CN2CCOCC2)cc1 [Luminespib] (partner 0.01 µM): 0.818.
For `CCCCCCCCCCCC1=C(O)C(=O)C=C(O)C1=O` [Embelin] + Cc1nc(Nc2ncc(C(=O)Nc3c(C)cccc3Cl)s2)cc(N2CCN(CCO)CC2)n1 [Dasatinib] (partner 0.075 µM), the relative viability turned out to be 0.309.
Take `CCCCCCCCCCCC1=C(O)C(=O)C=C(O)C1=O` [Embelin] + NC(=O)Nc1cc(-c2cccc(F)c2)sc1C(=O)N[C@H]1CCCNC1 [AZD7762] (partner 0.2 µM): the relative viability turned out to be 0.72.
The compound `CCCCCCCCCCCC1=C(O)C(=O)C=C(O)C1=O` [Embelin] + CC(=O)c1c(C)c2cnc(Nc3ccc(N4CCNCC4)cn3)nc2n(C2CCCC2)c1=O [Palbociclib] (partner 0.5 µM) displayed a relative viability of 0.543.

The assay is the same for the next values; noted with them: first compound 0.8 µM.
`CCCCCCCCCCCC1=C(O)C(=O)C=C(O)C1=O` [Embelin] + N=C(N)NC(=N)NCCc1ccccc1 [Phenformin] (partner 250 µM): the relative viability is 0.382.
On the same count and under the same terms, next, `CCCCCCCCCCCC1=C(O)C(=O)C=C(O)C1=O` [Embelin] + CCNC(=O)c1noc(-c2cc(C(C)C)c(O)cc2O)c1-c1ccc(CN2CCOCC2)cc1 [Luminespib] (partner 0.01 µM): 0.819; `CCCCCCCCCCCC1=C(O)C(=O)C=C(O)C1=O` [Embelin] + Cc1nc(Nc2ncc(C(=O)Nc3c(C)cccc3Cl)s2)cc(N2CCN(CCO)CC2)n1 [Dasatinib] (partner 0.075 µM): 0.361; `CCCCCCCCCCCC1=C(O)C(=O)C=C(O)C1=O` [Embelin] + NC(=O)Nc1cc(-c2cccc(F)c2)sc1C(=O)N[C@H]1CCCNC1 [AZD7762] (partner 0.2 µM): 0.764.
The compound `CCCCCCCCCCCC1=C(O)C(=O)C=C(O)C1=O` [Embelin] + CC(=O)c1c(C)c2cnc(Nc3ccc(N4CCNCC4)cn3)nc2n(C2CCCC2)c1=O [Palbociclib] (partner 0.5 µM) yielded a relative viability of 0.56.

The same assay, now with this note: first compound 2.53 µM.
`CCCCCCCCCCCC1=C(O)C(=O)C=C(O)C1=O` [Embelin] + N=C(N)NC(=N)NCCc1ccccc1 [Phenformin] (partner 250 µM) registered a relative viability of 0.364.
`CCCCCCCCCCCC1=C(O)C(=O)C=C(O)C1=O` [Embelin] + CCNC(=O)c1noc(-c2cc(C(C)C)c(O)cc2O)c1-c1ccc(CN2CCOCC2)cc1 [Luminespib] (partner 0.01 µM) yielded a relative viability of 0.853.
Compound `CCCCCCCCCCCC1=C(O)C(=O)C=C(O)C1=O` [Embelin] + Cc1nc(Nc2ncc(C(=O)Nc3c(C)cccc3Cl)s2)cc(N2CCN(CCO)CC2)n1 [Dasatinib] (partner 0.075 µM) displayed a relative viability of 0.321.
As for `CCCCCCCCCCCC1=C(O)C(=O)C=C(O)C1=O` [Embelin] + NC(=O)Nc1cc(-c2cccc(F)c2)sc1C(=O)N[C@H]1CCCNC1 [AZD7762] (partner 0.2 µM), the relative viability was 0.751.
`CCCCCCCCCCCC1=C(O)C(=O)C=C(O)C1=O` [Embelin] + CC(=O)c1c(C)c2cnc(Nc3ccc(N4CCNCC4)cn3)nc2n(C2CCCC2)c1=O [Palbociclib] (partner 0.5 µM) had a relative viability of 0.583.

The assay is the same for the next values; noted with them: first compound 8 µM.
Compound `CCCCCCCCCCCC1=C(O)C(=O)C=C(O)C1=O` [Embelin] + N=C(N)NC(=N)NCCc1ccccc1 [Phenformin] (partner 250 µM) had a relative viability of 0.411.
On the same count and under the same terms, next, `CCCCCCCCCCCC1=C(O)C(=O)C=C(O)C1=O` [Embelin] + CCNC(=O)c1noc(-c2cc(C(C)C)c(O)cc2O)c1-c1ccc(CN2CCOCC2)cc1 [Luminespib] (partner 0.01 µM): 0.892.

(Values after the supplement of paper PMC10307832.)
